Experiments:
[1] = system: Factor VIII (FVIII); test: FVIII Activity by manual one-stage assay in patient plasma; type: in vivo, human; settings: FVIII Case #3, 45 min after Stimate; baseline 18.9%
Method: (§1) Blood samples were collected by venipuncture in 3.2% sodium citrate anticoagulant. Platelet poor plasma was separated by centrifugation per clinical protocols, snap frozen, and stored at −80 C until tested. FVIII Antigen was measured by ELISA (FVIII-AG ELISA kit, Affinity Biologicals) per the manufacturer's instructions. FVIII Activity was measured by manual one-stage assay per the clinical protocol of the Bloodworks Northwest Hemostasis Reference Laboratory. The Koate DVI (Kedrion) coefficient (in vivo) was ascertained by measuring FVIII Antigen and FVIII Activity samples from patients undergoing clinically-indicated Koate DVI kinetic studies and calculating the Activity:Antigen ratio. Pooled normal plasma (Precision BioLogic), normal reference plasmas (Precision BioLogic, Siemens), abnormal reference plasma (Siemens), samples from healthy blood donors, and FVIII-deficient plasma (Affinity Biologicals, Siemens) were used in assays as standards and controls.

[2] = system: Factor VIII (FVIII); test: FVIII Antigen by ELISA (FVIII-AG ELISA kit) in patient plasma; type: in vivo, human
Method: as §1

[3] = system: Factor IX (FIX); test: FIX Activity by manual one-stage assay in patient plasma; type: in vivo, human; settings: FIX Case #1, at presentation, 6 days after Benefix
Method: (§2) Blood samples were collected by venipuncture in 3.2% sodium citrate anticoagulant. Platelet poor plasma was separated by centrifugation per clinical protocols, snap frozen, and stored at −80 C until tested. FIX Antigen was measured by FIX-EIA paired antibody ELISA (Affinity Biologicals). FIX-deficient plasma (Affinity Biologicals) was used as a negative control and diluent. FIX Activity was performed via manual one-stage assay per the clinical laboratory protocols of the Bloodworks Northwest Hemostasis Reference Laboratory. FIX-deficient plasma (Siemens) was used as a diluent and negative control. The Benefix (Wyeth Pharmaceuticals) coefficient was ascertained by serial dilution of Benefix into FIX-deficient plasma (Affinity Biologicals), performance of both the FIX Antigen and Activity assays, and calculating the Activity:Antigen ratio.

[4] = system: Factor IX (FIX); test: FIX Antigen by FIX-EIA paired antibody ELISA in patient plasma; type: in vivo, human; settings: FIX Case #1, patient with severe Hemophilia B, at presentation, 6 days after Benefix
Method: as §2

[5] = system: Factor IX (FIX); test: FIX coefficient, Activity:Antigen ratio (dilution into FIX-deficient plasma / normal plasma standards); type: biochemical, human
Method: as §2
The patient then received a dose of Alprolix followed by a blood draw 24 hours later. The Alprolix drug coefficient was not able to be experimentally determined due to limited drug availability. In lieu of this, we used normal plasma standards and experimentally determined the coefficient of normal human FIX to be 1.1. We then assumed the drug coefficient for Alprolix to be similar to naturally occurring FIX, and determined the patient's FIX level by: FIX Activity=(Base FIX Activity)+[(Measured FIX Antigen−Base FIX Antigen)×(Patient's FIX Coefficient)].

[6] = system: Factor XI (FXI); test: Factor XI Coefficient, serial dilution of normal reference plasma into FXI-deficient plasma; type: biochemical, human; settings: plasma pooled from healthy subjects
Method: Commercially-available normal and abnormal (FVII- and FXI-deficient) plasmas (Siemens) were obtained to be tested as experimental samples. Factor VII and Factor XI Coefficients were determined by serial dilution of normal reference plasma (Precision BioLogic) into FVII-deficient and FXI-deficient plasmas (Affinity Biologicals).
We tested two plasmas, one with normal levels of FXI, and one deficient in FXI (approximately 1/3 FXI activity). We experimentally determined using plasma pooled from healthy subjects that the coefficient of natural FXI is 0.82. The FXI Activity was then determined by: FXI Activity=[(Measured FXI Antigen)×(FXI Coefficient)].

## NC(=O)CC[C@@H]1NC(=O)[C@H](Cc2ccccc2)NC(=O)[C@H](Cc2ccc(O)cc2)NC(=O)CCSSC[C@@H](C(=O)N2CCC[C@H]2C(=O)N[C@H](CCCN=C(N)N)C(=O)NCC(N)=O)NC(=O)[C@H](CC(N)=O)NC1=O [Stimate]
[1]
  FVIII Activity (Measured): 50.76%
[2]; FVIII Case #3, 45 min after Stimate, calculated with patient's FVIII coefficient 1.97, baseline 18.9%
  FVIII Activity (Calculated): 48.92%
[2]; FVIII Case #3, patient with mild Hemophilia A, 45 min after Stimate, baseline 9.59 IU/dL
  Measured FVIII Antigen (FVIII:Ag) (after Stimate): 24.83 IU/dL

## Benefix: a different FIX replacement therapy (Wyeth Pharmaceuticals / Pfizer)
[3]
  FIX Activity (Measured): 4%
[4]
  Measured FIX Antigen (FIX:Ag): 8.0 IU/dL
[5]; serial dilution of Benefix into FIX-deficient plasma
  drug coefficient (FIX Activity:Antigen ratio): 2.1

## normal human FIX: naturally occurring FIX in normal plasma standards
[5]; normal plasma standards
  coefficient of normal human FIX: 1.1

## natural FXI: FXI of plasma pooled from healthy subjects
[6]
  coefficient of natural FXI: 0.82
